Data from patent US11000033B2, “Ketone or oxime compound, and herbicide” (NISSAN CHEMICAL CORPORATION, priority 2014, dated 2021).

How the values were obtained:
Assay type in all cases: in vivo
Setaria viridis = experiment: Test Example 5: herbicidal effect by foliage application, plastic box (symbol G); details: 320 g/ha, 3 weeks after application
Procedure, shortened: (§1)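 After sowing into sterilized diluvial soil and growing two weeks under glass at 25° C. to 30° C., seedlings receive a uniform foliar spray of diluted emulsion. Damage is judged visually three weeks on.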

Veronica persica = experiment: Test Example 5: herbicidal effect by foliage application, plastic box (symbol R); details: 320 g/ha, 3 weeks after application
Procedure, shortened: as §1

Abutilon theophrasti = experiment: Test Example 5: herbicidal effect by foliage application, plastic box (symbol M); details: 320 g/ha, 3 weeks after application
Procedure, shortened: as §1

[1] = system: Echinochloa crus-galli var. crus-galli; experiment: Test Example 3: herbicidal effect by foliage application, Wagner pot (symbol H); details: application herbicide amount 320 g/ha
Procedure, shortened: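 Foliar spray of a water-diluted emulsion at a predetermined herbicide amount, applied to 14-day-old plants. Seedlings were raised in flooded alluvial soil (0.1–0.5 cm water) at 25–30 °C in a greenhouse. Injury was rated after 3 weeks against fixed criteria.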

wheat = experiment: Test Example 5: effect on crop by foliage application, plastic box (symbol e); details: 320 g/ha, 3 weeks after application
Procedure, shortened: (§2)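 Greenhouse test at 25° C. to 30° C. Seeds of crops and weeds were spot-sown in boxes of sterilized diluvial soil under roughly 1.5 cm soil cover, then grown for foliage treatment.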

Stellaria media = experiment: Test Example 4: herbicidal effect by soil treatment (symbol P); details: 320 g/ha
Procedure, shortened: (§3)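 Seeds were sown in sterilized diluvial soil, covered with about 1.5 cm of soil, and the soil surface was sprayed with a water-diluted emulsion of the compound at a predetermined rate. Plants grew in a greenhouse at 25° C. to 30° C.; effects were scored visually 3 weeks after application.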

Chenopodium album = experiment: Test Example 5: herbicidal effect by foliage application, plastic box (symbol O); details: 320 g/ha, 3 weeks after application
Procedure, shortened: as §1

Amaranthus retroflexus = experiment: Test Example 4: herbicidal effect by soil treatment (symbol N); details: 320 g/ha
Procedure, shortened: as §3

Apera spica-venti = experiment: Test Example 4: herbicidal effect by soil treatment (symbol L); details: 320 g/ha
Procedure, shortened: as §3

soybean = experiment: Test Example 5: effect on crop by foliage application, plastic box (symbol d); details: 320 g/ha, 3 weeks after application
Procedure, shortened: as §2

[2] = system: directly sowed rice plant; experiment: Test Example 3: effect on crop by foliage application, Wagner pot (symbol b); details: application herbicide amount 320 g/ha
Procedure, shortened: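 Greenhouse culture at 25–30 °C of seeded rice, Cyperus difformis, Leptochloa chinensis and Echinochloa crus-galli var. crus-galli, in alluvial soil held under 0.1–0.5 cm of water in a Wagner pot.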

[3] = system: Echinochloa crus-galli var. crus-galli; experiment: Test Example 5: herbicidal effect by foliage application, plastic box (symbol H); details: 320 g/ha, 3 weeks after application
Procedure, shortened: as §1

Monochoria vaginalis = experiment: Test Example 1: herbicidal activity, application before weed generation in submerged conditions (symbol C); details: application herbicide amount 320 g/ha
Procedure, shortened: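 Scores run 0 to 5 by herbicidal ratio, with 5 meaning 90% or more and 0 meaning 5% or lower, read 3 weeks after treatment. Compound was applied as a diluted emulsion to the water surface of submerged alluvial-soil pots on the day weed seeds were sown.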

corn = experiment: Test Example 4: effect on crop by soil treatment (symbol c); details: 320 g/ha
Procedure, shortened: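 Steps: fill box with sterilized diluvial soil; sow seed spot-like; cover with ~1.5 cm soil; grow in greenhouse (25° C. to 30° C.).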

Alopecurus myosuroides = experiment: Test Example 4: herbicidal effect by soil treatment (symbol J); details: 320 g/ha
Procedure, shortened: as §3

Lolium multiflorum Lam. = experiment: Test Example 4: herbicidal effect by soil treatment (symbol K); details: 320 g/ha
Procedure, shortened: as §3

CON=C(C)CC1CC(OC(=O)C(C)Oc2ccc(Oc3cnc4cc(Cl)ccc4n3)cc2)=C(c2c(C)cc(C)cc2C)C1=O (centres unmarked) [1-087]
G: Setaria viridis, herbicidal effect (criteria 0-5) (Setaria viridis): 5 (Herbicidal ratio of 90% or more (almost completely withered)) | R: Veronica persica, herbicidal effect (criteria 0-5) (Veronica persica): 3 (Herbicidal ratio of 40% or higher and lower than 70%) | M: Abutilon theophrasti, herbicidal effect (criteria 0-5) (Abutilon theophrasti): 5 (Herbicidal ratio of 90% or more (almost completely withered)) | herbicidal effect on H (Echinochloa crus-galli var. crus-galli), grade 0-5 [1]: 5 (Herbicidal ratio of 90% or more (almost completely withered)) | e: wheat, effect on crop (criteria 0-5) (wheat): 5 (Herbicidal ratio of 90% or more (almost completely withered)) | P: Stellaria media, herbicidal effect grade (Stellaria media): 0 (Herbicidal ratio of 5% or lower (almost no effect)) | O: Chenopodium album, herbicidal effect (criteria 0-5) (Chenopodium album): 0 (Herbicidal ratio of 5% or lower (almost no effect)) | N: Amaranthus retroflexus, herbicidal effect grade (Amaranthus retroflexus): 5 (Herbicidal ratio of 90% or more (almost completely withered)) | L: Apera spica-venti, herbicidal effect grade (Apera spica-venti): 5 (Herbicidal ratio of 90% or more (almost completely withered)) | d: soybean, effect on crop (criteria 0-5) (soybean): 3 (Herbicidal ratio of 40% or higher and lower than 70%) | effect on crop b (directly sowed rice plant), grade 0-5 [2]: 5 (Herbicidal ratio of 90% or more (almost completely withered)) | H: Echinochloa crus-galli var. crus-galli, herbicidal effect (criteria 0-5) [3]: 5 (Herbicidal ratio of 90% or more (almost completely withered)) | Herbicidal effect grade, C: Monochoria vaginalis (Monochoria vaginalis): 1 (Herbicidal ratio of 5% or higher and lower than 20%) | c: corn, effect grade on crop (corn): 3 (Herbicidal ratio of 40% or higher and lower than 70%) | J: Alopecurus myosuroides, herbicidal effect grade (Alopecurus myosuroides): 5 (Herbicidal ratio of 90% or more (almost completely withered)) | K: Lolium multiflorum Lam., herbicidal effect grade (Lolium multiflorum Lam.): 5 (Herbicidal ratio of 90% or more (almost completely withered))

CON=C(C)CC1CC(OC(=O)C2=CCCC2)=C(c2c(C)cc(C)cc2C)C1=O (centres unmarked) [1-088]
G: Setaria viridis, herbicidal effect (criteria 0-5) (Setaria viridis): 5 (Herbicidal ratio of 90% or more (almost completely withered)) | R: Veronica persica, herbicidal effect (criteria 0-5) (Veronica persica): 3 (Herbicidal ratio of 40% or higher and lower than 70%) | M: Abutilon theophrasti, herbicidal effect (criteria 0-5) (Abutilon theophrasti): 4 (Herbicidal ratio of 70% or higher and lower than 90%) | herbicidal effect on H (Echinochloa crus-galli var. crus-galli), grade 0-5 [1]: 5 (Herbicidal ratio of 90% or more (almost completely withered)) | e: wheat, effect on crop (criteria 0-5) (wheat): 5 (Herbicidal ratio of 90% or more (almost completely withered)) | P: Stellaria media, herbicidal effect grade (Stellaria media): 0 (Herbicidal ratio of 5% or lower (almost no effect)) | O: Chenopodium album, herbicidal effect (criteria 0-5) (Chenopodium album): 2 (Herbicidal ratio of 20% or higher and lower than 40%) | N: Amaranthus retroflexus, herbicidal effect grade (Amaranthus retroflexus): 1 (Herbicidal ratio of 5% or higher and lower than 20%) | L: Apera spica-venti, herbicidal effect grade (Apera spica-venti): 5 (Herbicidal ratio of 90% or more (almost completely withered)) | d: soybean, effect on crop (criteria 0-5) (soybean): 3 (Herbicidal ratio of 40% or higher and lower than 70%) | effect on crop b (directly sowed rice plant), grade 0-5 [2]: 5 (Herbicidal ratio of 90% or more (almost completely withered)) | H: Echinochloa crus-galli var. crus-galli, herbicidal effect (criteria 0-5) [3]: 5 (Herbicidal ratio of 90% or more (almost completely withered)) | Herbicidal effect grade, C: Monochoria vaginalis (Monochoria vaginalis): 0 (Herbicidal ratio of 5% or lower (almost no effect)) | c: corn, effect grade on crop (corn): 4 (Herbicidal ratio of 70% or higher and lower than 90%) | J: Alopecurus myosuroides, herbicidal effect grade (Alopecurus myosuroides): 5 (Herbicidal ratio of 90% or more (almost completely withered)) | K: Lolium multiflorum Lam., herbicidal effect grade (Lolium multiflorum Lam.): 5 (Herbicidal ratio of 90% or more (almost completely withered))

CON=C(C)CC1CC(OC(=O)C2=C(Br)CCC2)=C(c2c(C)cc(C)cc2C)C1=O (centres unmarked) [1-089]
G: Setaria viridis, herbicidal effect (criteria 0-5) (Setaria viridis): 5 (Herbicidal ratio of 90% or more (almost completely withered)) | R: Veronica persica, herbicidal effect (criteria 0-5) (Veronica persica): 3 (Herbicidal ratio of 40% or higher and lower than 70%) | M: Abutilon theophrasti, herbicidal effect (criteria 0-5) (Abutilon theophrasti): 4 (Herbicidal ratio of 70% or higher and lower than 90%) | herbicidal effect on H (Echinochloa crus-galli var. crus-galli), grade 0-5 [1]: 5 (Herbicidal ratio of 90% or more (almost completely withered)) | e: wheat, effect on crop (criteria 0-5) (wheat): 5 (Herbicidal ratio of 90% or more (almost completely withered)) | P: Stellaria media, herbicidal effect grade (Stellaria media): 0 (Herbicidal ratio of 5% or lower (almost no effect)) | O: Chenopodium album, herbicidal effect (criteria 0-5) (Chenopodium album): 1 (Herbicidal ratio of 5% or higher and lower than 20%) | N: Amaranthus retroflexus, herbicidal effect grade (Amaranthus retroflexus): 3 (Herbicidal ratio of 40% or higher and lower than 70%) | L: Apera spica-venti, herbicidal effect grade (Apera spica-venti): 5 (Herbicidal ratio of 90% or more (almost completely withered)) | d: soybean, effect on crop (criteria 0-5) (soybean): 2 (Herbicidal ratio of 20% or higher and lower than 40%) | effect on crop b (directly sowed rice plant), grade 0-5 [2]: 5 (Herbicidal ratio of 90% or more (almost completely withered)) | H: Echinochloa crus-galli var. crus-galli, herbicidal effect (criteria 0-5) [3]: 5 (Herbicidal ratio of 90% or more (almost completely withered)) | Herbicidal effect grade, C: Monochoria vaginalis (Monochoria vaginalis): 3 (Herbicidal ratio of 40% or higher and lower than 70%) | c: corn, effect grade on crop (corn): 5 (Herbicidal ratio of 90% or more (almost completely withered)) | J: Alopecurus myosuroides, herbicidal effect grade (Alopecurus myosuroides): 5 (Herbicidal ratio of 90% or more (almost completely withered)) | K: Lolium multiflorum Lam., herbicidal effect grade (Lolium multiflorum Lam.): 5 (Herbicidal ratio of 90% or more (almost completely withered))

CCCC=CC(=O)OC1=C(c2c(C)cc(C)cc2C)C(=O)C(CC(C)=NOC)C1 (centres unmarked) [1-090]
G: Setaria viridis, herbicidal effect (criteria 0-5) (Setaria viridis): 5 (Herbicidal ratio of 90% or more (almost completely withered)) | R: Veronica persica, herbicidal effect (criteria 0-5) (Veronica persica): 3 (Herbicidal ratio of 40% or higher and lower than 70%) | M: Abutilon theophrasti, herbicidal effect (criteria 0-5) (Abutilon theophrasti): 4 (Herbicidal ratio of 70% or higher and lower than 90%) | herbicidal effect on H (Echinochloa crus-galli var. crus-galli), grade 0-5 [1]: 5 (Herbicidal ratio of 90% or more (almost completely withered)) | e: wheat, effect on crop (criteria 0-5) (wheat): 5 (Herbicidal ratio of 90% or more (almost completely withered)) | P: Stellaria media, herbicidal effect grade (Stellaria media): 0 (Herbicidal ratio of 5% or lower (almost no effect)) | O: Chenopodium album, herbicidal effect (criteria 0-5) (Chenopodium album): 2 (Herbicidal ratio of 20% or higher and lower than 40%) | N: Amaranthus retroflexus, herbicidal effect grade (Amaranthus retroflexus): 0 (Herbicidal ratio of 5% or lower (almost no effect)) | L: Apera spica-venti, herbicidal effect grade (Apera spica-venti): 5 (Herbicidal ratio of 90% or more (almost completely withered)) | d: soybean, effect on crop (criteria 0-5) (soybean): 3 (Herbicidal ratio of 40% or higher and lower than 70%) | effect on crop b (directly sowed rice plant), grade 0-5 [2]: 5 (Herbicidal ratio of 90% or more (almost completely withered)) | H: Echinochloa crus-galli var. crus-galli, herbicidal effect (criteria 0-5) [3]: 5 (Herbicidal ratio of 90% or more (almost completely withered)) | Herbicidal effect grade, C: Monochoria vaginalis (Monochoria vaginalis): 1 (Herbicidal ratio of 5% or higher and lower than 20%) | c: corn, effect grade on crop (corn): 3 (Herbicidal ratio of 40% or higher and lower than 70%) | J: Alopecurus myosuroides, herbicidal effect grade (Alopecurus myosuroides): 5 (Herbicidal ratio of 90% or more (almost completely withered)) | K: Lolium multiflorum Lam., herbicidal effect grade (Lolium multiflorum Lam.): 5 (Herbicidal ratio of 90% or more (almost completely withered))

CON=C(C)CC1CC(OC(=O)C=Cc2ccco2)=C(c2c(C)cc(C)cc2C)C1=O (centres unmarked) [1-091]
G: Setaria viridis, herbicidal effect (criteria 0-5) (Setaria viridis): 5 (Herbicidal ratio of 90% or more (almost completely withered)) | R: Veronica persica, herbicidal effect (criteria 0-5) (Veronica persica): 1 (Herbicidal ratio of 5% or higher and lower than 20%) | M: Abutilon theophrasti, herbicidal effect (criteria 0-5) (Abutilon theophrasti): 4 (Herbicidal ratio of 70% or higher and lower than 90%) | herbicidal effect on H (Echinochloa crus-galli var. crus-galli), grade 0-5 [1]: 5 (Herbicidal ratio of 90% or more (almost completely withered)) | e: wheat, effect on crop (criteria 0-5) (wheat): 5 (Herbicidal ratio of 90% or more (almost completely withered)) | P: Stellaria media, herbicidal effect grade (Stellaria media): 0 (Herbicidal ratio of 5% or lower (almost no effect)) | O: Chenopodium album, herbicidal effect (criteria 0-5) (Chenopodium album): 0 (Herbicidal ratio of 5% or lower (almost no effect)) | N: Amaranthus retroflexus, herbicidal effect grade (Amaranthus retroflexus): 0 (Herbicidal ratio of 5% or lower (almost no effect)) | L: Apera spica-venti, herbicidal effect grade (Apera spica-venti): 5 (Herbicidal ratio of 90% or more (almost completely withered)) | d: soybean, effect on crop (criteria 0-5) (soybean): 1 (Herbicidal ratio of 5% or higher and lower than 20%) | effect on crop b (directly sowed rice plant), grade 0-5 [2]: 5 (Herbicidal ratio of 90% or more (almost completely withered)) | H: Echinochloa crus-galli var. crus-galli, herbicidal effect (criteria 0-5) [3]: 5 (Herbicidal ratio of 90% or more (almost completely withered)) | Herbicidal effect grade, C: Monochoria vaginalis (Monochoria vaginalis): 0 (Herbicidal ratio of 5% or lower (almost no effect)) | c: corn, effect grade on crop (corn): 5 (Herbicidal ratio of 90% or more (almost completely withered)) | J: Alopecurus myosuroides, herbicidal effect grade (Alopecurus myosuroides): 5 (Herbicidal ratio of 90% or more (almost completely withered)) | K: Lolium multiflorum Lam., herbicidal effect grade (Lolium multiflorum Lam.): 5 (Herbicidal ratio of 90% or more (almost completely withered))
